Literature values in publication PMC5465257, “Evaluation of JNJ-54717793 a Novel Brain Penetrant Selective Orexin 1 Receptor Antagonist in Two Rat Models of Panic Attack Provocation” (Frontiers in Pharmacology, 2017).

Experiments:
GABA synthesis = system: GABA synthesis; design: method as in earlier work; settings: 3.5 nmol/0.5 μl per hour, unilateral infusions; ref Shekhar and DiMicco, 1987; Abshire et al., 1988; Shekhar et al., 1996, 2006; Shekhar and Keim, 1997; cited from earlier work
[1] = design: method as in Beig et al., 2015a; settings: systemic administration; ref Beig et al., 2015a; cited from earlier work
Sprague-Dawley rats = system: Sprague-Dawley rats; design: method as in Bonaventure et al., 2015b; Johnson et al., 2015; settings: 20% CO2 model, ref Bonaventure et al., 2015b, Johnson et al.; cited from earlier work
[2] = design: method as in Furlong et al., 2009; settings: ref Furlong et al., 2009; cited from earlier work

## C=CC[C@H](N)C(=O)O [1-allyglycine]
GABA synthesis
  reduction of local GABA concentrations: approximately 60%

## COc1ccc(C[C@H]2c3cc(OC)c(OC)cc3CCN2[C@@H](C(=O)NC(C)C)c2ccccc2)cc1OC [ACT335827]
[1]
  novelty stress (cage changes) induced cardioexcitation: attenuates

## CCN(Cc1cccnc1)C(=O)CN(c1ccc(OC)nc1)S(=O)(=O)c1ccccc1C [EMPA, N-ethyl-2-[(6-methoxy-pyridin-3-yl)-(toluene-2-sulfonyl)-amino]-N-pyridin-3-ylmethyl-acetamide]
[1]
  novelty stress (cage changes) induced cardioexcitation: attenuates

## CC1(C)OC[C@H](NC(=O)Nc2ccc(Br)cc2Br)[C@H](c2ccccc2)O1 [JNJ-10397049]
Sprague-Dawley rats
  panic responses to 20% CO2: did not alter

## CNC(=O)[C@@H](c1ccccc1)N1CCc2cc(OC)c(OC)cc2[C@@H]1CCc1ccc(C(F)(F)F)cc1 [almorexant]
[2]
  locomotor and cardiovascular responses to exploration and footshock: attenuated
